Source: US10787452B2 (Vertex Pharmaceuticals Incorporated, priority 2012, dated 2020)

These molecules were tested on HCT116 colorectal cancer cells (assay: Cisplatin sensitization assay (96 h cell viability MTS)). Conditions: 96 h MTS, compound plus Cisplatin.
Assay type: cell-based
Outline: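 HCT116 cells were co-treated with compound and cisplatin, each in 2-fold serial dilutions from a 10 μM top final concentration, as a full matrix. After 96 h at 37 °C, 5% CO2, viability was read by MTS following a 1 h incubation with reagent.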
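Note: compound concentration needed to lower the Cisplatin-alone IC50 by a set fold.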

**Q.** Cn1cc(-c2ccncc2NC(=O)c2c(N)nn3cc(F)cnc23)ccc1=O [I-C-59, 2-amino-6-fluoro-N-(1-methyl-6-oxo-1,6-dihydro-[3,4′-bipyridin]-3′-yl)pyrazolo[1,5-a]pyrimidine-3-carboxamide] was tested. Which “Cisplatin Sensitization Assay” value did it give?
**A.** The value was “++ (Compounds with a Cisplatin sensitization value >0.02 μM but <0.2 μM are marked with “++.”)”.

**Q.** How did the “Cisplatin Sensitization Assay” value turn out when Nc1nn2cc(F)cnc2c1C(=O)Nc1cnccc1-c1ccccn1 [I-C-60, N-([2,4′-bipyridin]-3′-yl)-2-amino-6-fluoropyrazolo[1,5-a]pyrimidine-3-carboxamide] was run?
**A.** Its value is “++ (Compounds with a Cisplatin sensitization value >0.02 μM but <0.2 μM are marked with “++.”)”.

**Q.** How did the “Cisplatin Sensitization Assay” value turn out when CS(=O)(=O)c1ccc(-c2ccncc2NC(=O)c2c(N)nn3cc(F)cnc23)cc1 [I-C-61, 2-amino-6-fluoro-N-(4-(4-(methylsulfonyl)phenyl)pyridin-3-yl)pyrazolo[1,5-a]pyrimidine-3-carboxamide] was run?
**A.** The value was “+++ (Compounds with a Cisplatin sensitization value of <0.02 μM are marked with “+++.”)”.

**Q.** Which “Cisplatin Sensitization Assay” value does the source give for Cc1nccnc1-c1ccncc1NC(=O)c1c(N)nn2cc(F)cnc12 [I-C-62, 2-amino-6-fluoro-N-(4-(3-methylpyrazin-2-yl)pyridin-3-yl)pyrazolo[1,5-a]pyrimidine-3-carboxamide] here?
**A.** Its value is “++ (Compounds with a Cisplatin sensitization value >0.02 μM but <0.2 μM are marked with “++.”)”.

**Q.** How did the “Cisplatin Sensitization Assay” value turn out when Cc1nn(C)cc1-c1ccncc1NC(=O)c1c(N)nn2cc(F)cnc12 [I-C-63, 2-amino-N-(4-(1,3-dimethyl-1H-pyrazol-4-yl)pyridin-3-yl)-6-fluoropyrazolo[1,5-a]pyrimidine-3-carboxamide] was run?
**A.** Its value is “+++ (Compounds with a Cisplatin sensitization value of <0.02 μM are marked with “+++.”)”.

**Q.** How did the “Cisplatin Sensitization Assay” value turn out when Nc1nn2cc(F)cnc2c1C(=O)Nc1cnccc1-c1ccc(S(=O)(=O)N2CCC2)cc1 [I-C-64, 2-amino-N-(4-(4-(azetidin-1-ylsulfonyl)phenyl)pyridin-3-yl)-6-fluoropyrazolo[1,5-a]pyrimidine-3-carboxamide] was run?
**A.** Its value is “+++ (Compounds with a Cisplatin sensitization value of <0.02 μM are marked with “+++.”)”.

**Q.** For Cn1ncnc1-c1ccncc1NC(=O)c1c(N)nn2cc(F)cnc12 [I-C-65, 2-amino-6-fluoro-N-(4-(1-methyl-1H-1,2,4-triazol-5-yl)pyridin-3-yl)pyrazolo[1,5-a]pyrimidine-3-carboxamide], which “Cisplatin Sensitization Assay” value is on record?
**A.** Its value is “++ (Compounds with a Cisplatin sensitization value >0.02 μM but <0.2 μM are marked with “++.”)”.

**Q.** Which “Cisplatin Sensitization Assay” value does the source give for CN1CCOC[C@@H]1c1ccc(-c2ccncc2NC(=O)c2c(N)nn3cc(F)cnc23)cc1 [I-C-66, (S)-2-amino-6-fluoro-N-(4-(4-(4-methylmorpholin-3-yl)phenyl)pyridin-3-yl)pyrazolo[1,5-a]pyrimidine-3-carboxamide] here?
**A.** The value was “+++ (Compounds with a Cisplatin sensitization value of <0.02 μM are marked with “+++.”)”.

**Q.** Which “Cisplatin Sensitization Assay” value does the source give for Cc1cncnc1-c1ccncc1NC(=O)c1c(N)nn2cc(F)cnc12 [I-C-67, 2-amino-6-fluoro-N-(4-(5-methylpyrimidin-4-yl)pyridin-3-yl)pyrazolo[1,5-a]pyrimidine-3-carboxamide] here?
**A.** The value was “++ (Compounds with a Cisplatin sensitization value >0.02 μM but <0.2 μM are marked with “++.”)”.

**Q.** Cn1ccc(-c2ccncc2NC(=O)c2c(N)nn3cc(F)cnc23)n1 [I-C-68, 2-amino-6-fluoro-N-(4-(1-methyl-1H-pyrazol-3-yl)pyridin-3-yl)pyrazolo[1,5-a]pyrimidine-3-carboxamide] was tested. Which “Cisplatin Sensitization Assay” value did it give?
**A.** Its value is “+ (Compounds with a Cisplatin sensitization value >0.2 μM but <5 μM are marked with “+.”)”.

**Q.** CC(=O)N1CCC(c2ccncc2NC(=O)c2c(N)nn3cc(F)cnc23)CC1 [I-C-69, N-(4-(1-acetylpiperidin-4-yl)pyridin-3-yl)-2-amino-6-fluoropyrazolo[1,5-a]pyrimidine-3-carboxamide] was tested. Which “Cisplatin Sensitization Assay” value did it give?
**A.** The value was “+++ (Compounds with a Cisplatin sensitization value of <0.02 μM are marked with “+++.”)”.

**Q.** For Nc1nn2cc(F)cnc2c1C(=O)Nc1cnccc1C1CCN(C(=O)C2CC2)CC1 [I-C-70, 2-amino-N-(4-(1-(cyclopropanecarbonyl)piperidin-4-yl)pyridin-3-yl)-6-fluoropyrazolo[1,5-a]pyrimidine-3-carboxamide], which “Cisplatin Sensitization Assay” value is on record?
**A.** The value was “+++ (Compounds with a Cisplatin sensitization value of <0.02 μM are marked with “+++.”)”.

**Q.** How did the “Cisplatin Sensitization Assay” value turn out when N#CC1(C(=O)N2CCC(c3ccncc3NC(=O)c3c(N)nn4cc(F)cnc34)CC2)CC1 [I-C-71, 2-amino-N-(4-(1-(1-cyanocyclopropanecarbonyl)piperidin-4-yl)pyridin-3-yl)-6-fluoropyrazolo[1,5-a]pyrimidine-3-carboxamide] was run?
**A.** Its value is “+++ (Compounds with a Cisplatin sensitization value of <0.02 μM are marked with “+++.”)”.

**Q.** Which “Cisplatin Sensitization Assay” value does the source give for Cn1nncc1-c1ccncc1NC(=O)c1c(N)nn2cc(F)cnc12 [I-C-72, 2-amino-6-fluoro-N-(4-(1-methyl-1H-1,2,3-triazol-5-yl)pyridin-3-yl)pyrazolo[1,5-a]pyrimidine-3-carboxamide] here?
**A.** Its value is “+++ (Compounds with a Cisplatin sensitization value of <0.02 μM are marked with “+++.”)”.

**Q.** CN1CCC(c2ccncc2NC(=O)c2c(N)nn3cc(F)cnc23)CC1=O (stereo not drawn) [I-C-73, 2-amino-6-fluoro-N-(4-(1-methyl-2-oxopiperidin-4-yl)pyridin-3-yl)pyrazolo[1,5-a]pyrimidine-3-carboxamide] was tested. Which “Cisplatin Sensitization Assay” value did it give?
**A.** Its value is “++ (Compounds with a Cisplatin sensitization value >0.02 μM but <0.2 μM are marked with “++.”)”.

**Q.** Which “Cisplatin Sensitization Assay” value does the source give for Cn1ccc2c(NC(=O)c3c(N)nn4cc(F)cnc34)cncc21 [I-C-74, 2-amino-6-fluoro-N-(1-methyl-1H-pyrrolo[2,3-c]pyridin-4-yl)pyrazolo[1,5-a]pyrimidine-3-carboxamide] here?
**A.** Its value is “+ (Compounds with a Cisplatin sensitization value >0.2 μM but <5 μM are marked with “+.”)”.

**Q.** Nc1nn2cc(F)cnc2c1C(=O)Nc1cnccc1C1CCOC1 (stereo not drawn) [I-C-75, 2-amino-6-fluoro-N-(4-(tetrahydrofuran-3-yl)pyridin-3-yl)pyrazolo[1,5-a]pyrimidine-3-carboxamide] was tested. Which “Cisplatin Sensitization Assay” value did it give?
**A.** Its value is “++ (Compounds with a Cisplatin sensitization value >0.02 μM but <0.2 μM are marked with “++.”)”.

**Q.** Nc1nn2cc(F)cnc2c1C(=O)Nc1cnccc1CN1CCCC1=O [I-C-76, 2-amino-6-fluoro-N-(4-((2-oxopyrrolidin-1-yl)methyl)pyridin-3-yl)pyrazolo[1,5-a]pyrimidine-3-carboxamide] was tested. Which “Cisplatin Sensitization Assay” value did it give?
**A.** Its value is “+ (Compounds with a Cisplatin sensitization value >0.2 μM but <5 μM are marked with “+.”)”.

**Q.** For Cc1ncc(-c2ccncc2NC(=O)c2c(N)nn3cc(F)cnc23)n1C [I-C-77, 2-amino-N-(4-(1,2-dimethyl-1H-imidazol-5-yl)pyridin-3-yl)-6-fluoropyrazolo[1,5-a]pyrimidine-3-carboxamide], which “Cisplatin Sensitization Assay” value is on record?
**A.** Its value is “+++ (Compounds with a Cisplatin sensitization value of <0.02 μM are marked with “+++.”)”.

**Q.** Cc1ncn(C)c1-c1ccncc1NC(=O)c1c(N)nn2cc(F)cnc12 [I-C-78, 2-amino-N-(4-(1,4-dimethyl-1H-imidazol-5-yl)pyridin-3-yl)-6-fluoropyrazolo[1,5-a]pyrimidine-3-carboxamide] was tested. Which “Cisplatin Sensitization Assay” value did it give?
**A.** The value was “++ (Compounds with a Cisplatin sensitization value >0.02 μM but <0.2 μM are marked with “++.”)”.

**Q.** With Cn1cncc1-c1c(F)cncc1NC(=O)c1c(N)nn2cc(F)cnc12 [I-C-79, 2-amino-6-fluoro-N-(5-fluoro-4-(1-methyl-1H-imidazol-5-yl)pyridin-3-yl)pyrazolo[1,5-a]pyrimidine-3-carboxamide] as the molecule, how does the “Cisplatin Sensitization Assay” value read?
**A.** Its value is “+++ (Compounds with a Cisplatin sensitization value of <0.02 μM are marked with “+++.”)”.
